Values quoted from earlier work, collected in US9814623B2, “Antimicrobial gas impregnating devices and methods” (ENOX (ISRAEL) LTD., priority 2007, dated 2017).

Assays:
[1] = tested on: Staphylococcus aureus; settings: exogenous gNO at 200 ppm for extended periods of time
[2] = tested on: Candida albicans; settings: exogenous gNO at 200 ppm for extended periods of time
[3] = tested on: Pseudomonas aeruginosa; settings: exogenous gNO at 200 ppm for extended periods of time
[4] = tested on: cultured human dermal fibroblasts; settings: exogenous gNO at 200 ppm for extended periods of time
[5] = tested on: Group B Streptococcus; settings: exogenous gNO at 200 ppm for extended periods of time
[6] = tested on: nosocomial pneumonia caused by microbial pathogens such as S. aureus and P. aeruginosa; settings: exogenous gNO at 200 ppm
[7] = tested on: Escherichia coli; settings: exogenous gNO at 200 ppm for extended periods of time
[8] = tested on: infections after tympanostomy tube placement; settings: otic drops after tympanostomy tube placement

Molecule	growth of Staphylococcus aureus [1]	growth of Candida albicans [2]	growth of Pseudomonas aeruginosa [3]	cytotoxic effects on cultured human dermal fibroblasts [4]	growth of Group B Streptococcus [5]	time to clear nosocomial pneumonia pathogens [6]	growth of Escherichia coli [7]	incidence of infection [8]
[N]=O [gNO, nitric oxide]	inhibited and prevented the growth	inhibited and prevented the growth	inhibited and prevented the growth	without any cytotoxic effects	inhibited and prevented the growth	about 6 hours	inhibited and prevented the growth	
Gentamicin								significantly reduced
